Reference: paper PMC7948482, “Erythrocytes efficiently utilize exogenous sphingosines for S1P synthesis and export via Mfsd2b” (The Journal of Biological Chemistry, 2021)

Molecular target: T1, Mfsd2b (Mus musculus, UniProt Q3T9M1)
T1 construct: full-length native transporter in isolated mouse erythrocytes; Mfsd2b knockout erythrocytes as control
T1 sequence (Q3T9M1 1-494): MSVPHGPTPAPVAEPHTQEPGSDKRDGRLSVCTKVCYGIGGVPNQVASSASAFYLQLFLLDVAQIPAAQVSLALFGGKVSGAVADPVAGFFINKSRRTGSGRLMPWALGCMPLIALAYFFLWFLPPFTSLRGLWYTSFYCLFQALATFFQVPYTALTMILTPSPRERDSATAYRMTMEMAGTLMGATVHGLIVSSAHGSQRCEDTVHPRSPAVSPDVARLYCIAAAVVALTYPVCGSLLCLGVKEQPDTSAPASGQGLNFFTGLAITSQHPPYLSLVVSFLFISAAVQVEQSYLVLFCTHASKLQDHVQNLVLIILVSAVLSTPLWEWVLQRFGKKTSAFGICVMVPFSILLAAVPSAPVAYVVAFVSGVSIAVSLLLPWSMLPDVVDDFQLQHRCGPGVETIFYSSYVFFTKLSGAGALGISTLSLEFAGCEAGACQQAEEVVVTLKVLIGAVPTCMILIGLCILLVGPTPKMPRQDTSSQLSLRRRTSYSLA
Assay: [[…]-3H]-S1P export, WT versus Mfsd2b KO erythrocytes
Type: cell-based
Details: S1P formed inside from [3-3H]-Sph; 0.5% BSA acceptor; pH 7.4; labelled compound

SMILES: CCCCCCCCCCCCC/C=C/[C@@H](O)[C@@H](N)COP(=O)(O)O [S1P]
- [3-3H]-S1P export, WT versus Mfsd2b KO erythrocytes: Mfsd2b KO erythrocytes showed a significant reduction of S1P transport
